The text below walks through data of ChEMBL document CHEMBL1240316, “An oxidation-sensing mechanism is used by the global regulator MgrA in Staphylococcus aureus” (2006).

Activity calls are given as the source filed them. The rule behind the calls is not given here.

What all share (type): functional, organism-based
In assay [1] the test system is Staphylococcus aureus. Nature of the assay: Antimicrobial activity against Staphylococcus aureus assessed as visible growth at 1 ug/ml after 24 hrs in presence of 20 uM paraquat.
The test system of assay [2] is Staphylococcus aureus. Nature of the assay: Antimicrobial activity against Staphylococcus aureus expressing mgrA C12S mutant gene harboring plasmid Pyj335 assessed as visible growth at 2.6 ug/ml after 24 hrs in presence of 20 uM paraquat.
Assay [3] deals with Staphylococcus aureus. Nature of the assay: Antimicrobial activity against Staphylococcus aureus assessed as visible growth at 1.1 ug/ml after 24 hrs.
Assay [4] relates to Staphylococcus aureus. Nature of the assay: Antimicrobial activity against Staphylococcus aureus expressing mgrA C12S mutant gene harboring Pyj335-His-mgrA assessed as visible growth at 0.6 ug/ml after 24 hrs in presence of 20 uM paraquat.
The subject of assay [5] is Staphylococcus aureus. Nature of the assay: Antimicrobial activity against Staphylococcus aureus expressing mgrA C12S mutant gene harboring plasmid Pyj335 assessed as visible growth at 2.6 ug/ml after 24 hrs.
In assay [6] the test system is Staphylococcus aureus. Nature of the assay: Antimicrobial activity against Staphylococcus aureus expressing mgrA C12S mutant gene harboring plasmid Pyj335 assessed as visible growth at 0.6 ug/ml after 24 hrs in presence of 20 uM paraquat.
For assay [7], the system named is Staphylococcus aureus. Nature of the assay: Antimicrobial activity against Staphylococcus aureus assessed as visible growth at 1.4 ug/ml after 24 hrs in presence of 20 uM paraquat.
For assay [8], the system named is Staphylococcus aureus. Nature of the assay: Antimicrobial activity against Staphylococcus aureus expressing mgrA C12S mutant gene harboring plasmid Pyj335 assessed as visible growth at 1.4 ug/ml after 24 hrs in presence of 20 uM paraquat.
Assay [9] concerns Staphylococcus aureus. Nature of the assay: Antimicrobial activity against Staphylococcus aureus expressing mgrA C12S mutant gene harboring plasmid Pyj335 assessed as visible growth at 1.8 ug/ml after 24 hrs.
Assay [10] has as its system Staphylococcus aureus. Nature of the assay: Antimicrobial activity against Staphylococcus aureus expressing mgrA C12S mutant gene harboring Pyj335-His-mgrA assessed as visible growth at 1.8 ug/ml after 24 hrs.
The subject of assay [11] is Staphylococcus aureus. Nature of the assay: Antimicrobial activity against Staphylococcus aureus assessed as visible growth at 0.6 ug/ml after 24 hrs.
Assay [12] has as its system Staphylococcus aureus. Nature of the assay: Antimicrobial activity against Staphylococcus aureus expressing mgrA C12S mutant gene assessed as visible growth at 1.1 ug/ml after 24 hrs.
The test system of assay [13] is Staphylococcus aureus. Nature of the assay: Antimicrobial activity against Staphylococcus aureus assessed as visible growth at 1.8 ug/ml after 24 hrs.
Assay [14] relates to Staphylococcus aureus. Nature of the assay: Antimicrobial activity against Staphylococcus aureus expressing mgrAC12S mutant gene harboring plasmid Pyj335 assessed as visible growth at 0.55 ug/ml after 24 hrs.
For assay [15], the system named is Staphylococcus aureus. Nature of the assay: Antimicrobial activity against Staphylococcus aureus assessed as visible growth at 0.35 ug/ml after 24 hrs.
The test system of assay [16] is Staphylococcus aureus. Nature of the assay: Antimicrobial activity against Staphylococcus aureus expressing mgrA C12S mutant gene assessed as visible growth at 0.65 ug/ml after 24 hrs.
In assay [17] the test system is Staphylococcus aureus. Nature of the assay: Antimicrobial activity against Staphylococcus aureus expressing mgrA C12S mutant gene harboring plasmid Pyj335 assessed as visible growth at 0.35 ug/ml after 24 hrs in presence of 20 uM paraquat.
Assay [18] concerns Staphylococcus aureus. Nature of the assay: Antimicrobial activity against Staphylococcus aureus expressing mgrA C12S mutant gene harboring plasmid Pyj335 assessed as visible growth at 0.20 ug/ml after 24 hrs in presence of 25 uM paraquat.
For assay [19], the system named is Staphylococcus aureus. Nature of the assay: Antimicrobial activity against Staphylococcus aureus assessed as visible growth at 0.75 ug/ml after 24 hrs.
Assay [20] relates to Staphylococcus aureus. Nature of the assay: Antimicrobial activity against Staphylococcus aureus expressing mgrA C12S mutant gene assessed as visible growth at 0.75 ug/ml after 24 hrs.
Assay [21] has as its system Staphylococcus aureus. Nature of the assay: Antimicrobial activity against Staphylococcus aureus expressing mgrA C12S mutant gene harboring Pyj335-His-mgrA assessed as visible growth at 0.20 ug/ml after 24 hrs in presence of 100 uM hydrogen peroxide.
The subject of assay [22] is Staphylococcus aureus. Nature of the assay: Antimicrobial activity against Staphylococcus aureus assessed as visible growth at 0.25 ug/ml after 24 hrs.

As to `CN[C@H](CC(C)C)C(=O)N[C@H]1C(=O)N[C@@H](CC(N)=O)C(=O)N[C@H]2C(=O)N[C@H]3C(=O)N[C@H](C(=O)N[C@H](C(=O)O)c4cc(O)cc(O)c4-c4cc3ccc4O)[C@H](O)c3ccc(c(Cl)c3)Oc3cc2cc(c3O[C@@H]2O[C@H](CO)[C@@H](O)[C@H](O)[C@H]2O[C@H]2C[C@](C)(N)[C@H](O)[C@H](C)O2)Oc2ccc(cc2Cl)[C@H]1O` [VANCOMYCIN], the result in the assay with Staphylococcus aureus [1], in the assay on Staphylococcus aureus [4], in the assay on Staphylococcus aureus [6], in the assay with Staphylococcus aureus [7], with Staphylococcus aureus [8] and in the assay with Staphylococcus aureus [9] was inactive. The result in the assay with Staphylococcus aureus [11] and in the assay with Staphylococcus aureus [12] was inactive. For the same molecule, the outcome in the assay with Staphylococcus aureus [2], in the assay with Staphylococcus aureus [3], in the assay on Staphylococcus aureus [5], in the assay with Staphylococcus aureus [10] and in the assay with Staphylococcus aureus [13] was Active.

On to `O=C(O)c1cn(C2CC2)c2cc(N3CCNCC3)c(F)cc2c1=O` [CIPROFLOXACIN], for which the result in the assay with Staphylococcus aureus [14], in the assay with Staphylococcus aureus [16], in the assay on Staphylococcus aureus [17], in the assay with Staphylococcus aureus [18] and in the assay with Staphylococcus aureus [22] was inactive. Also, the result in the assay on Staphylococcus aureus [15], in the assay on Staphylococcus aureus [19], in the assay with Staphylococcus aureus [20] and in the assay with Staphylococcus aureus [21] was Active.
